Laboratory results: patent US8901337B2, “Metal complexes having dual histone deacetylase inhibitory and DNA-binding activity” (Royal College of Surgeons in Ireland, priority 2009, dated 2014)

Key:
HDAC1 = biological target: T1, HDAC1 (Homo sapiens, UniProt Q13547); assay: Cayman HDAC1 Inhibitor Screening Assay Kit (fluorescence); type: biochemical
T1 construct: purchased Cayman Chemicals, Ann Arbor, USA
Description: The assay provides a fast two-step fluorescence-based method for measuring HDAC activity. Briefly, in the first step an acetylated lysine residue was incubated with HDAC1 and potential inhibitors. Deacetylation sensitises the substrate so that treatment with the HDAC developer in the second step releases a fluorescent product. The fluorescent reaction product was analysed using a plate reader with an excitation wavelengths of 350 nm and emission wavelengths of 460 nm.

[1] = system: lung cancer cell line (A549); assay: MTS in vitro cytotoxicity, A549; type: cell-based; settings: 72 hours, Table 1, read-out: IC50 values against A549
Description: (§1) All cells were kept in a humidified atmosphere with 5% CO2 at 37° C.; cells from confluent monolayers were removed from flasks by trypsin/EDTA solution and their viability determined by the trypan blue exclusion test.
(§2) Cell growth was determined by the [3-(4,5-dimethylthiazol-2-yl)-5-(3-carboxymethoxyphenyl)-2-(4-sulfophenyl)-2H-tetrazolium, inner salt, (MTS test, Promega, Southampton, UK), a colorimetric assay based on the ability of the viable cells to reduce a soluble yellow tetrazolium salt to blue formazan. 10,000 ovarian cancer cells or 3,000 fibroblast cells for example were seeded per well onto 96-well plates in 100 μl of the appropriate culture medium. 24 hr after sowing the cells, the media was removed and the cells were treated by adding 100 μl of the compound media solutions at the appropriate concentrations. cis-[Pt(NH3)2(malSAHA−2H)], cisplatin and cis-[Pt(NH3)2(mal)] were prepared freshly in cell culture media. […] The maximum percentage of dmso present in any well was less than 0.1% (v/v). cis-[Pt(NH3)2(malBel—2H)], belinostat and malbelinostat were freshly prepared in dimethyl formamide (DMF) and diluted in culture media prior to the MTS assay. The maximum percentage of DMF present in any well was 0.5% (v/v). A range of concentrations between 1 μM and 100 μM was used.
(§3) After 72 hr of treatment, 20 μl of the MTS reagent was added to each well and the plates incubated for 2 hr at 37° C. […] The percentages of surviving cells relative to untreated controls were determined.

[2] = system: liver cell lines (Hep-G2); assay: MTS in vitro cytotoxicity, Hep-G2; type: cell-based; settings: 72 hours, Table 1, read-out: IC50 values against Hep-G2
Description: as §1, §2, §3

[3] = system: colon cancer cell line (SW480); assay: MTS in vitro cytotoxicity, SW480; type: cell-based; settings: 72 hours, Table 1, read-out: IC50 values against SW480
Description: as §1, §2, §3

A2780 cisR cells = assay: Inhibition of DNA synthesis, BrdU incorporation assay, A2780 cisR; type: cell-based, human; settings: 72 hr, FIG. 19
Description: DNA synthesis was determined using 5-bromo-2-deoxyuridine (BrdU) colourimetric incorporation assay.^18 A2780 P and A2780 cisR cells were seeded into 96 well plates and allowed to adhere overnight. All test agents were added and incubated for 72 hr prior to the addition of BrdU (10 μM per well). Plates were then incubated at 37° C. for 4 h and incorporation was quantified by ELISA (Calbiochem).

DNA in A2780 P cells = assay: Pt binding to DNA in cultured cells (ICP-MS), A2780 P; type: cell-based, human; settings: 4 hours of cell treatment; for DNA-bound Pt in A2780 P: 40 μM of Pt complexes
Description: (§4) Pt DNA binding of Pt complexes was measured in SW480 cells (colon cancer) and CH1 cells (lymphoma) or alternatively A2780 P and A2780 cisR cells (sensitive and resistant to cisplatin respectively). The cells were seeded in 60 mm tissue culture dishes with 10 ml of their respective medium. After overnight incubation the medium was removed and replaced with 10 ml of the respective medium containing a platinum complex giving a final concentration of 43 or 40 μM depending on the experiment. The cells were incubated with a given Pt complex for either 2 or 4 h depending on the experiment. The cells were trypsinised and centrifuged. The supernantant was removed and the cells washed twice with 1×PBS and centrifuged. The pellet was re-suspended in DNA buffer to which Proteinase K (20 mg/mL) and 10% SDS were added. After a gentle shake and incubation at 45° C. for two hours, RNAse (100 mg/mL) was added and the cells were incubated at 37° C. overnight. The volume of supernatant was noted and an equal volume of phenol was added.
The resulting mixture was shook for 10 min, then centrifuged for 10 min at 10° C. The supernatant was transferred into a new centrifuge tube (15 ml) and the volume was noted. To this was added an equal volume of phenol and chloroform/isoamylalcohol (24:1). The resulting mixture was shook for 10 min, then centrifuged for 10 min at 10° C. (3000 RPM). The supernatant was transferred into a new centrifuge tube (15 mL) and the volume was noted. To this was added an equal volume of chloroform. The resulting mixture was shook for 10 min, then centrifuged for 10 min at 10° C. The supernatant was transferred into a new centrifuge tube (15 mL) and the volume was noted. To this was added a volume that is 1/10 of the supernatant of 3 M sodium acetate (Ph 5.2) and three times the volume of cold 100% isopropanol (from freezer). The solution was shook gently until the DNA is precipitated. […] The absorbance of the DNA by was measured by UV spectrophotometry at 260 nm and 280 nm and the concentration of DNA calculated. Platinum bound to DNA was determined by ICP-MS.

[4] = system: caspase-3 activation in A2780 P cells; assay: Caspase-3 colourimetric assay, A2780 P; type: cell-based, human; settings: 72 hr, IC50 and IC75, FIG. 20
Description: Both floating and attached cells were collected by centrifugation. Cells, at a density of 1.5×10^6 cells/ml were washed with PBS and then re-suspended in chilled cell lysis buffer (supplied in the Caspase-3 colourimetric assay kit, Calbiochem, UK). Cells were incubated on ice for 10 min and then centrifuged for 1 min at 10,000 g. The cytosolic fraction (supernatant) was collected into a fresh tube and 50 μl (2 mg/ml) of each protein sample was transferred to a 96 well plate and diluted with lysis buffer. A 50 μl aliquot of X2 reaction buffer, containing 10 mM DTT was added, followed by 5 μl of 4 mM DEVD-pNA substrate to give a final concentration of 200 μM. The plate was then incubated at 37° C. for 1-2 h. OD was determined at 400 nm using an Anthos HT-II microtitreplate reader. The fold increase in caspase-3 and -9 activities was determined by comparing results to that obtained with un-induced control.

[5] = system: DNA in CH1 cells (lymphoma); assay: Pt binding to DNA in cultured cells (ICP-MS), CH1; type: cell-based; settings: 43 μM of Pt complexes, 2 hours of cell treatment
Description: as §4
The resulting mixture was shook for 10 min, then centrifuged for 10 min at 10° C. The supernatant was transferred into a new centrifuge tube (15 ml) and the volume was noted. […] The absorbance of the DNA by was measured by UV spectrophotometry at 260 nm and 280 nm and the concentration of DNA calculated. Platinum bound to DNA was determined by ICP-MS.

T1 sequence (Q13547 whole entry): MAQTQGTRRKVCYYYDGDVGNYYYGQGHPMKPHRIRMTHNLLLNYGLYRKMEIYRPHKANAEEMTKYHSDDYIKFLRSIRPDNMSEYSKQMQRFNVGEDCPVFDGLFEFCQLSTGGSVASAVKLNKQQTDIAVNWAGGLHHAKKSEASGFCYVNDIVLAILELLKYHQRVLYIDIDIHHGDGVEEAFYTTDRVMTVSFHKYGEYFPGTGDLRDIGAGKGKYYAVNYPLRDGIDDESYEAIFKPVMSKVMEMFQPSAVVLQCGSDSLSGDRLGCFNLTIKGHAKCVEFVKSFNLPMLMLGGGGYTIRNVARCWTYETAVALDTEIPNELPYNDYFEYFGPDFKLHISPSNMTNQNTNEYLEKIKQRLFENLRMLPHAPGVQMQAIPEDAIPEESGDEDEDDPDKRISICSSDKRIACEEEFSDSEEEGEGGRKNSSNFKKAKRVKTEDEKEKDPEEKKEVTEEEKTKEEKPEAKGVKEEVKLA

[NH2][Pt]1([NH2])[O]C(=O)C(Cc2ccc(NC(=O)CCCCCCC(=O)NO)cc2)C(=O)[O]1 [cis-[Pt(NH3)2(malSAHA−2H)], cis-[Pt(NH3)2(malSAHA−2H)].3H2O]
inhibition of HDAC1 (in words) (HDAC1): inhibit HDAC1
IC50 (HDAC1; read-out: IC50 against HDAC I at 200 μM, at 200 μM): 1.14 µM
IC50 [1]: 12.7 ± 1.8 µM
IC50 [2]: 47.8 ± 4 µM
IC50 [3]: 13.4 ± 3.9 µM

[NH2][Pt]1([NH2])[O]C(=O)C(Cc2ccc(NS(=O)(=O)c3ccc(/C=C/C(=O)NO)cc3)cc2)C(=O)[O]1 [cis-[Pt(NH3)2(malBel−2H)], cis-[Pt(NH3)2(malBel−2H)].1.5H2O]
effect on DNA synthesis, BrdU incorporation (A2780 cisR cells): dose-dependant decrease in DNA synthesis
DNA-bound Pt in A2780 P (DNA in A2780 P cells): 5,175 · 10^−15 ± 27 moles of Pt/μg of DNA
DNA binding in A2780 P compared with cisplatin (in words) (DNA in A2780 P cells): binds DNA in A2780 P and A2780 cisR cancer cells and to a greater extent than cisplatin
caspase-3 activity [4]: an increase in both Caspase-3 and -9 activities

N.N.[Cl][Pt][Cl] [cisplatin, cis-[Pt^II(NH3)2Cl2], reference compound]
IC50 [1]: 6.3 ± 0.1 µM
DNA-bound Pt in A2780 P (DNA in A2780 P cells): 200 · 10^−15 ± 60 moles of Pt/μg of DNA
IC50 [2]: 39.8 ± 3.5 µM
IC50 [3]: 8 ± 0.3 µM
DNA-bound Pt in CH1 [5]: 10.5 · 10^−15 moles of Pt/μg of DNA
